Laboratory results from ChEMBL document CHEMBL1155817, “Hanultarin, a cytotoxic lignan as an inhibitor of actin cytoskeleton polymerization from the seeds of Trichosanthes kirilowii” (Bioorg Med Chem, 2008).
≈ marks a conversion by molar mass, not a printed value. Calls of active or inactive are those of the source. The calls are words filed in the database; no cut-off is given here.

Tests used:
A549 = assay: Cytotoxicity against human A549 cells after 48 hrs by SRB assay; format: functional, cell-based; settings: A549, 48 h
[1] = Cytotoxicity against mouse B16F1 cells after 48 hrs by SRB assay; format: functional, cell-based; settings: B16-F1, 48 h
HaCaT [2] = assay: Inhibition of actin polymerization in human HaCaT cells assessed as aggregate-like structure at 40 ug/mL by immunofluorescence technique; format: cell-based
SK-MEL-2 = assay: Cytotoxicity against human SK-MEL-2 cells after 48 hrs by SRB assay; format: functional, cell-based; settings: SK-MEL-2, 48 h
HaCaT [3] = assay: Inhibition of actin polymerization in human HaCaT cells assessed as aggregate-like structure by immunofluorescence technique; format: cell-based
HaCaT [4] = assay: Inhibition of actin polymerization in human HaCaT cells assessed as aggregate-like structure at 3.5 ug/mL by immunofluorescence technique; format: cell-based
HaCaT [5] = assay: Inhibition of actin polymerization in human HaCaT cells assessed as aggregate-like structure at 12 ug/mL by immunofluorescence technique; format: cell-based
HaCaT [6] = assay: Inhibition of actin polymerization in human HaCaT cells assessed as aggregate-like structure at 1 ug/mL by immunofluorescence technique; format: cell-based

Row | SMILES | IC50 (A549) [mg/L] | IC50 [1] [mg/L] | Activity (HaCaT [2]) | IC50 (SK-MEL-2) [mg/L] | Activity (HaCaT [3]) | Activity (HaCaT [4]) | Activity (HaCaT [5]) | Activity (HaCaT [6])
1 | COc1cc([C@@H]2OC[C@@H]3[C@H]2CO[C@H]3c2ccc(O)c(OC)c2)ccc1O [(+)-PINORESINOL] | > 40 | > 40 | inactive | > 40 | – | – | – | –
2 | COc1cc(/C=C/C(=O)OC[C@H](Cc2ccc(O)c(OC)c2)[C@H](CO)Cc2ccc(O)c(OC)c2)ccc1O [HANULTARIN] | 3 (≈ 5.57 µM) | 13 (≈ 24.1 µM) | – | 3 (≈ 5.57 µM) | Dose-dependent effect | Active | – | –
3 | COc1cc([C@H]2OC(=O)[C@H]3[C@@H]2CO[C@@H]3c2ccc(O)c(OC)c2)ccc1O | > 40 | 13 (≈ 34.9 µM) | inactive | 20 (≈ 53.7 µM) | – | – | – | –
4 | COc1cc(/C=C/C(=O)OC[C@H](Cc2ccc(O)c(OC)c2)[C@H](COC(=O)/C=C/c2ccc(O)c(OC)c2)Cc2ccc(O)c(OC)c2)ccc1O | 12 (≈ 16.8 µM) | 12 (≈ 16.8 µM) | – | 10 (≈ 14 µM) | – | – | Active | –
5 | C=C1[C@@H](C)[C@H]2[C@H](Cc3ccccc3)NC(=O)[C@]23[C@H](OC(C)=O)/C=C/[C@@](C)(O)C(=O)[C@@H](C)C/C=C/[C@H]3[C@@H]1O | – | – | – | – | – | – | – | Active
6 | COc1cc(C[C@@H](CO)[C@H](CO)Cc2ccc(O)c(OC)c2)ccc1O [(+)-SECOISOLARICIRESINOL] | > 40 | > 40 | inactive | > 40 | – | – | – | –
